Measurements as given in PMC12155096 (International Journal of Molecular Sciences, 2025).
Where a name gives a salt, the structure may show the parent alone.

Columns and labels:
human CYP2C19 = human CYP2C19 (Homo sapiens, UniProt P33261)
CYP3A4 = CYP3A4 (Homo sapiens, UniProt P08684)
human CYP2C9 = human CYP2C9 (Homo sapiens, UniProt P11712)
human CYP2D6 = human CYP2D6 (Homo sapiens, UniProt P10635)
human CYP1A2 = molecular target: T1, human CYP1A2 (Homo sapiens, UniProt P05177)
T1 sequence (P05177 1-516): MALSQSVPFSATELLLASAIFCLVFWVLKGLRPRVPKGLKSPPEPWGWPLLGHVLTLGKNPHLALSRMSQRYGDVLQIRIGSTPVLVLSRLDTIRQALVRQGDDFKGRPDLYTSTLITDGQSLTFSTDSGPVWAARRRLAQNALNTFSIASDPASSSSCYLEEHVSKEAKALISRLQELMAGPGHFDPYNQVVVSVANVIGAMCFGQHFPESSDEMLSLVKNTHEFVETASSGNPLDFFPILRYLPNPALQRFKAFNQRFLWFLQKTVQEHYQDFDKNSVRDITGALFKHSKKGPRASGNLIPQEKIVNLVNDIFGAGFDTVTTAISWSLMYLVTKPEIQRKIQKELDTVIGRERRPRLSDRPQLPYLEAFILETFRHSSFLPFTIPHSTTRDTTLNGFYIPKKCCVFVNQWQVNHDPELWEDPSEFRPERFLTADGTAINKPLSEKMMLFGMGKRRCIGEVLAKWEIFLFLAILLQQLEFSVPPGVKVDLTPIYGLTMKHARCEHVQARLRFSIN

Sequence of human CYP2C19 (P33261 whole entry): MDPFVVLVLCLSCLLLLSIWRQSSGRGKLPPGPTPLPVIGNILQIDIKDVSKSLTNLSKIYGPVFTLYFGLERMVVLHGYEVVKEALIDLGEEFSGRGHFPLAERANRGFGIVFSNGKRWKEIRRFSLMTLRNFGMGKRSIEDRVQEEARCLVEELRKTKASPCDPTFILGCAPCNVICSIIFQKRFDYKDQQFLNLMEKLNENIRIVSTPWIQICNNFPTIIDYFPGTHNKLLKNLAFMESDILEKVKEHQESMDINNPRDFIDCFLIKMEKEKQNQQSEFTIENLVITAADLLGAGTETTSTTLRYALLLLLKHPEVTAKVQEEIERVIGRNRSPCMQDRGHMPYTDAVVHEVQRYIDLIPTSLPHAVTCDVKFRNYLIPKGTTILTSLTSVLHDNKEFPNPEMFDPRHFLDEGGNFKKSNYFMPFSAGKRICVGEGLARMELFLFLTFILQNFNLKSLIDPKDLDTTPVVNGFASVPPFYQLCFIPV
Sequence of human CYP2C9 (P11712 whole entry): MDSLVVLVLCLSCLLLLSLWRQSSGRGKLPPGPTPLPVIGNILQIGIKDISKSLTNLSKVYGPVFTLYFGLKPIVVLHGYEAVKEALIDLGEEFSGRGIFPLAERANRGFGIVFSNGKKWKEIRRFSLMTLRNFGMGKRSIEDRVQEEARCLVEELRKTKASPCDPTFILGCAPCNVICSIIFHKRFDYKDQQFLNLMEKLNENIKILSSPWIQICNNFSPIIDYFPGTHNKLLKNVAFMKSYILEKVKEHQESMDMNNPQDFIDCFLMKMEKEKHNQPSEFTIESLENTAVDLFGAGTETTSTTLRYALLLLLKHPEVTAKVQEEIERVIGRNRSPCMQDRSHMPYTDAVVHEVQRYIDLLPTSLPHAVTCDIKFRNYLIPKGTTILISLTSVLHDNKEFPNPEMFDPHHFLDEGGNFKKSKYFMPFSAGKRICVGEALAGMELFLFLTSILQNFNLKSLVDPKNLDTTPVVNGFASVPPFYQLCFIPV
Sequence of CYP3A4 (P08684 whole entry): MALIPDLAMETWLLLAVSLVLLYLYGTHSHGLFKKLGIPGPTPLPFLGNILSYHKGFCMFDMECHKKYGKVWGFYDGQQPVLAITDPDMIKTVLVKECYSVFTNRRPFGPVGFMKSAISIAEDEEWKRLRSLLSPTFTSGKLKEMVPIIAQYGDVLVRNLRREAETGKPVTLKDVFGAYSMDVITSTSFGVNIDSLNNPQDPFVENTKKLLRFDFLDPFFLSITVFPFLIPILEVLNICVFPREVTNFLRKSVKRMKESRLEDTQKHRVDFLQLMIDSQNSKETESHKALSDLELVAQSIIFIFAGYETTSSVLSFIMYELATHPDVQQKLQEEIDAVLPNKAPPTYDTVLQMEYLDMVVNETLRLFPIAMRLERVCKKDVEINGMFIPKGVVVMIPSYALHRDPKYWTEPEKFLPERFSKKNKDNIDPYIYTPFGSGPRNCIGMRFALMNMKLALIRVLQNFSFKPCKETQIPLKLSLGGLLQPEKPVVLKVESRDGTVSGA
Sequence of human CYP2D6 (P10635 whole entry): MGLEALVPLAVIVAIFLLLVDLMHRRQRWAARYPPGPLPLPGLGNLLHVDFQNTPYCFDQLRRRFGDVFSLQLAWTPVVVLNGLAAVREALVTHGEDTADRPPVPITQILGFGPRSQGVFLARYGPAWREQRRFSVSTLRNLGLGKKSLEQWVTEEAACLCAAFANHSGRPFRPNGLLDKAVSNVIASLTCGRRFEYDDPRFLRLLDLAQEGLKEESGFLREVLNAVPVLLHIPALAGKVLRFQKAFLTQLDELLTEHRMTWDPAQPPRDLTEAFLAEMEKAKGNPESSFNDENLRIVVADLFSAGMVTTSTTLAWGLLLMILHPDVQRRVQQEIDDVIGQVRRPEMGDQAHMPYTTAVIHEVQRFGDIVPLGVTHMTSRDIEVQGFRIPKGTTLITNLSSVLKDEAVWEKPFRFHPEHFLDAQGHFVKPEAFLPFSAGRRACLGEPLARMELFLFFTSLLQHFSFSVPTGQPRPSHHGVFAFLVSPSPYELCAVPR

| Structure (SMILES) | CYP2C19 AC50 (half-maximal activity concentration) (human CYP2C19) | AC50 (CYP3A4) [µM] | CYP2C9 AC50 (half-maximal activity concentration) (human CYP2C9) | CYP2D6 AC50 (half-maximal activity concentration) (human CYP2D6) | CYP1A2 AC50 (half-maximal activity concentration) (human CYP1A2) | AC50 (human CYP1A2) [µM] | AC50 (human CYP2C19) [µM] | AC50 (human CYP2C9) [µM] | other results |
| --- | --- | --- | --- | --- | --- | --- | --- | --- | --- |
| O=C(O)c1cc(C(=O)O)cc([N+](=O)[O-])c1 [5-Nitroisophthalic acid] | Inconclusive activator | 5.59 | Inactive | Inactive | Inconclusive inhibitor | – | – | – | – |
| CC(C)c1ccc2ncccc2c1 [6-(1-Methylethyl)quinoline] | Inactive | 35 | Inactive | Inactive | – | 46.2 | – | – | – |
| CCN(CC)c1ccc2c(C)cc(=O)oc2c1 [7-Diethylamino-4-methylcoumarin] | – | 32.4 | – | – | – | 1.9 | 36 | 4.6 | AC50 (human CYP2D6): 58.5 µM |
| N#CCc1ccc(Cl)cc1Cl [(2,4-Dichlorophenyl)acetonitrile] | – | 13.3 | Inactive | Inactive | – | 23.4 | 50.4 | – | – |
| CCCCCC[C@@H](CCC)C(=O)O [(2R)-2-Propyloctanoic acid] | Inconclusive activator | 31 | – | Inactive | Inactive | – | – | 34.7 | – |
| CCOC(=O)CC(CC(=O)OCC)(OC(C)=O)C(=O)OCC [Acetyltriethyl citrate] | – | 43.5 | – | Inactive | Inconclusive inhibitor | – | 18.1 | 30.6 | – |
| CCCCCCCCCCCCCCCCC(C(=O)O)C(O)(CC(=O)O)C(=O)O (stereo not drawn) [Agaric acid] | Inconclusive activator | 32.4 | Inactive | Inconclusive inhibitor | Inactive | – | – | – | – |
| CC1(C)[C@@H](O[C@H]2O[C@H](C(=O)O)[C@@H](O)[C@H](O)[C@H]2O[C@@H]2O[C@H](C(=O)O)[C@@H](O)[C@H](O)[C@H]2O)CC[C@]2(C)[C@H]3C(=O)C=C4[C@@H]5C[C@@](C)(C(=O)O)CC[C@]5(C)CC[C@@]4(C)[C@]3(C)CC[C@@H]12.N.O.O.O [Ammonium glycyrrhizinate trihydrate] | Inconclusive inhibitor | 23.5 | Inactive | Inactive | Inconclusive inhibitor | – | – | – | – |
| C[As+](C)(C)CC(=O)[O-] [Arsenobetaine] | Inactive | 47.7 | Inactive | Inactive | Inactive | – | – | – | – |
| CCCCC(CC)C(=O)[O-].CCCCC(CC)C(=O)[O-].[Ba+2] (stereo not drawn) [Barium bis(2-ethylhexanoate)] | Inactive | 38.5 | Inactive | Inactive | Inactive | – | – | – | – |
| CC(=O)OC(C(=O)c1ccccc1)c1ccccc1 (stereo not drawn) [Benzoin acetate] | – | 34.5 | – | – | – | 46.5 | 10.1 | 33.2 | AC50 (human CYP2D6): 59.5 µM |
| O=C(Cc1ccccc1)OCc1ccccc1 [Benzyl phenylacetate] | – | 11.5 | – | – | – | 12.7 | 13.5 | 35.8 | AC50 (human CYP2D6): 66.3 µM |
| C/C=C(\C)C(=O)OCc1ccccc1 [Benzyl tiglate] | Inconclusive inhibitor | 39 | Inactive | Inactive | – | 37 | – | – | – |
| C=C(C)C(=O)OCC(O)COc1ccc(C(C)(C)c2ccc(OCC(O)COC(=O)C(=C)C)cc2)cc1 (stereo not drawn) [Bisphenol A glycidyl methacrylate] | – | 3.3 | – | – | – | 63.5 | 7.59 | 3.46 | AC50 (human CYP2D6): 37 µM |
| CC(c1ccc(O)cc1)c1ccc(O)cc1 [Bisphenol E] | – | – | – | Inactive | Inactive | – | 33.5 | 38.6 | CYP3A4 AC50 (half-maximal activity concentration) (CYP3A4): Inconclusive inhibitor |
| CCC(=O)O[C@@H]1C=C2CC[C@@H]3[C@H](CC[C@]4(C)[C@@H](OC(=O)CC)CC[C@@H]34)C2CC1 (stereo partly drawn) [Bolandiol dipropionate] | Inactive | 10.6 | – | Inactive | Inconclusive inhibitor | – | – | 15.5 | – |
| CCOP(=S)(OCC)Oc1cc(Cl)c(Br)cc1Cl [Bromophos-ethyl] | – | – | – | – | – | – | – | – | CYP2C19 Efficacy (in parenthesis) (human CYP2C19; human): 0.71 ± 0.08 (-121 ± 12) %; CYP3A4 Efficacy (in parenthesis) (CYP3A4): 1.97 ± 0.48 (-79 ± 2) %; CYP2C9 Efficacy (in parenthesis) (human CYP2C9; human): 2.36 ± 0.42 (-102 ± 2) %; CYP2D6 IC50 (half-maximal inhibitory concentration) (human CYP2D6): Inactive; CYP1A2 Efficacy (in parenthesis) (human CYP1A2; human): 3.3 ± 0.22 (-98 ± 3) % |
| O=[N+]([O-])c1ccc(Nc2ccc(Nc3ccccc3)c(S(=O)(=O)[O-])c2)c([N+](=O)[O-])c1.[Na+] [C.I. Acid Orange 3] | Inconclusive inhibitor | 62.6 | – | Inactive | Inactive | – | – | 34.3 | – |
| N.N.O=C([O-])C1(C(=O)[O-])CCC1.[Pt+2] [Carboplatin] | – | 31.3 | – | – | – | 15.6 | 17.7 | 9.46 | AC50 (human CYP2D6): 28.7 µM |
| CC(=O)[O-].CC(=O)[O-].CC(=O)[O-].[Cr+3] [Chromium(III) acetate] | Inactive | 69.6 | – | Inactive | Inactive | – | – | 96.3 | – |
| CCOC(=O)COc1ccc2c(C)c(CCN(CC)CC)c(=O)oc2c1Cl.Cl [Cloricromen hydrochloride] | Inactive | 16.8 | Inactive | – | Inconclusive inhibitor | – | – | – | AC50 (human CYP2D6): 18.2 µM |
| O=C(O)C1(C(=O)Nc2ccc(Cl)cc2Cl)CC1 [Cyclanilide] | Inconclusive inhibitor | 55.5 | – | – | – | 60.6 | – | 18.7 | AC50 (human CYP2D6): 66.8 µM |
| CC(=O)O[C@H]1CC[C@@]2(C)C(=CC[C@@H]3[C@@H]2CC[C@]2(C)C(C(C)=O)=CC[C@@H]32)C1 [Dehydropregnenolone acetate] | Inactive | 4.44 | Inactive | Inactive | Inactive | – | – | – | – |
| COC(=O)CCCCCCCC(=O)OC [Dimethyl nonanedioate] | Inconclusive inhibitor | 58.1 | Inconclusive inhibitor | Inconclusive inhibitor | – | 40.1 | – | – | – |
| O=C(Oc1ccccc1)c1cccc(C(=O)Oc2ccccc2)c1 [Diphenyl isophthalate] | – | 20.9 | – | – | – | 36.1 | 9.89 | 9.46 | AC50 (human CYP2D6): 36.5 µM |
| CC(=O)O[C@@H]1C[C@H]2[C@@H]3CCc4cc(OC(=O)c5ccccc5)ccc4[C@H]3CC[C@]2(C)[C@H]1OC(C)=O [Estriol benzoate diacetate] | Inactive | 3.74 | – | Inactive | Inactive | – | – | 22.8 | – |
| CCC(=O)Oc1ccc2c(c1)CC[C@@H]1[C@@H]2CC[C@@]2(C)[C@H]1C[C@@H](OC(=O)CC)[C@@H]2OC(=O)CC [Estriol tripropionate] | – | 4.92 | – | Inconclusive inhibitor | Inconclusive inhibitor | – | 29.9 | 19.8 | – |
| CCOC(=O)C(C#N)=C(c1ccccc1)c1ccccc1 [Ethyl 2-cyano-3,3-diphenylacrylate] | – | 7.23 | – | Inconclusive inhibitor | – | 1.87 | 4.01 | 3.75 | – |
| CCOC(=O)c1ccc(O)c(O)c1 [Ethyl protocatechuate] | Inactive | – | – | Inactive | – | 27.2 | – | 32.2 | CYP3A4 AC50 (half-maximal activity concentration) (CYP3A4): Inactive |
| C[C@]12CC[C@H]3[C@@H](CCC4=CC(=O)CC[C@@]43C)[C@@H]1CC[C@@H]2C(=O)O [Etienic acid] | Inactive | 20.8 | – | Inactive | Inactive | – | – | 21.2 | – |
